# In paper PMC4177084 (Journal of Thyroid Research, 2014):
# Columns and labels:
# FGFR2 = biological target: T1, FGFR2 (Homo sapiens, UniProt P21802); test: Cell free kinase inhibition assay; type: biochemical
# T1 construct: purchased Carna Biosciences, Inc. (Kobe, Japan)
# BRK = biological target: T2, BRK (Homo sapiens, UniProt Q13882); test: Cell free kinase inhibition assay; type: biochemical
# T2 construct: purchased Carna Biosciences, Inc. (Kobe, Japan)
# FGFR3(K650M) = biological target: T3, FGFR3(K650M) (Homo sapiens, UniProt P22607, K650M); test: Cell free kinase inhibition assay; type: biochemical
# T3 construct: purchased Carna Biosciences, Inc. (Kobe, Japan)
# HGK = biological target: T4, HGK (Homo sapiens, UniProt O95819); test: Cell free kinase inhibition assay; type: biochemical
# T4 construct: purchased Carna Biosciences, Inc. (Kobe, Japan)
# EPHB2 = biological target: T5, EPHB2 (Homo sapiens, UniProt P29323); test: Cell free kinase inhibition assay; type: biochemical
# T5 construct: purchased Carna Biosciences, Inc. (Kobe, Japan)
# RAF1 = biological target: T6, RAF1 (Homo sapiens, UniProt P04049); test: Cell free kinase inhibition assay; type: biochemical
# T6 construct: purchased Carna Biosciences, Inc. (Kobe, Japan)
# TIE2 = biological target: T7, TIE2 (Homo sapiens, UniProt Q02763); test: Cell free kinase inhibition assay; type: biochemical
# T7 construct: purchased Carna Biosciences, Inc. (Kobe, Japan)
# SYK = biological target: T8, SYK (Homo sapiens, UniProt P43405); test: Cell free kinase inhibition assay; type: biochemical
# T8 construct: purchased Carna Biosciences, Inc. (Kobe, Japan)
# HER2 = biological target: T9, HER2 (Homo sapiens, UniProt P04626); test: Cell free kinase inhibition assay; type: biochemical
# T9 construct: purchased Carna Biosciences, Inc. (Kobe, Japan)
# IGF1R = biological target: T10, IGF1R (Homo sapiens, UniProt P08069); test: Cell free kinase inhibition assay; type: biochemical
# T10 construct: purchased Carna Biosciences, Inc. (Kobe, Japan)
# MUSK = biological target: T11, MUSK (Homo sapiens, UniProt O15146); test: Cell free kinase inhibition assay; type: biochemical
# T11 construct: purchased Carna Biosciences, Inc. (Kobe, Japan)
# GSK3β = biological target: T12, GSK3β (Homo sapiens, UniProt P49841); test: Cell free kinase inhibition assay; type: biochemical
# T12 construct: purchased Carna Biosciences, Inc. (Kobe, Japan)
# IKKb = biological target: T13, IKKb (Homo sapiens, UniProt O14920); test: Cell free kinase inhibition assay; type: biochemical
# T13 construct: purchased Carna Biosciences, Inc. (Kobe, Japan)
# IRAK4 = biological target: T14, IRAK4 (Homo sapiens, UniProt Q9NWZ3); test: Cell free kinase inhibition assay; type: biochemical
# T14 construct: purchased Carna Biosciences, Inc. (Kobe, Japan)
# K1 cells = test: Antiproliferation assay (WST-8); type: cell-based, human; conditions: Homo sapiens, 72 h; K1 (DTC), antiproliferative, 3 days
# FRS2 = test: Western blot of FRS2 phosphorylation in RO82-W-1 xenografts; type: in vivo, nude mice; conditions: 2 h after single oral 3, 10, 30, or 100 mg/kg
# K1 xenograft = test: Human thyroid cancer xenograft model, tumor growth; type: in vivo, nude mice; conditions: K1 xenograft, 1, 3, and 10 mg/kg oral once daily 14 days
# Protocol: (§1) Nude mice (CAnN.Cg-Foxn1nu/CrlCrlj, female, 5-6 weeks old) were obtained from Charles River Laboratories Japan (Kanagawa, Japan). Mice were maintained under specific pathogen-free conditions and housed in barrier facilities on a 12 h light/dark cycle, with food and water ad libitum. All procedures using laboratory animals were done in accordance with all applicable institutional and government regulatory guidelines and policies and were performed in an animal facility accredited by the Center for Accreditation of Laboratory Animal Care of the Japan Health Sciences Foundation. Tumor cells were cultured in appropriate culture mediums. […] Then, 0.1-0.2 mL of the cell suspension was inoculated subcutaneously into the right flank region of each mouse. […] The tumor size was measured in two dimensions by using a caliper, and the volume was calculated by using the formula: tumor volume (mm^3) = 1/2 length (mm) × [width (mm)]^2. The change in tumor volume in the treated group relative to that in the control group was calculated according to the following formula: ΔT/C = (ΔT/ΔC) × 100%, where ΔT and ΔC are the change in tumor volume (i.e., growth) for the treated and vehicle control group, respectively. The percentage of tumor growth inhibition (%TGI) was calculated from the formula: [(1 − ΔT/ΔC) × 100].
# TT xenograft = test: Human thyroid cancer xenograft model, tumor growth; type: in vivo, nude mice
# Protocol: as §1
# RO82-W-1 xenograft = test: Human thyroid cancer xenograft model, tumor growth; type: in vivo, nude mice
# Protocol: Nude mice (CAnN.Cg-Foxn1nu/CrlCrlj, female, 5-6 weeks old) were obtained from Charles River Laboratories Japan (Kanagawa, Japan). Mice were maintained under specific pathogen-free conditions and housed in barrier facilities on a 12 h light/dark cycle, with food and water ad libitum. All procedures using laboratory animals were done in accordance with all applicable institutional and government regulatory guidelines and policies and were performed in an animal facility accredited by the Center for Accreditation of Laboratory Animal Care of the Japan Health Sciences Foundation.
# Tumor cells were cultured in appropriate culture mediums. Cells were harvested with 0.05% or 0.25% (w/v) trypsin/EDTA and suspended with 50% (v/v) BD Matrigel (BD Biosciences, San Jose, CA) in the mixture of culture mediums at a density of 5–10 × 10^7 cells/mL. Then, 0.1-0.2 mL of the cell suspension was inoculated subcutaneously into the right flank region of each mouse. […] The tumor size was measured in two dimensions by using a caliper, and the volume was calculated by using the formula: tumor volume (mm^3) = 1/2 length (mm) × [width (mm)]^2. The change in tumor volume in the treated group relative to that in the control group was calculated according to the following formula: ΔT/C = (ΔT/ΔC) × 100%, where ΔT and ΔC are the change in tumor volume (i.e., growth) for the treated and vehicle control group, respectively. The percentage of tumor growth inhibition (%TGI) was calculated from the formula: [(1 − ΔT/ΔC) × 100].
# Supplementary Fig. S7 Comparison of antitumor activity with antiangiogenesis activity in human differentiated thyroid cancer RO82-W-1 xenografts in nude mice.
# Nude mice bearing RO82-W-1 xenografts […]
# when tumor volumes reached about 200 mm3 (day 1). The tumor volume was measured on day 22. Each group consisted of 6 mice. Data are shown as means ± SD. * P < 0.05 compared with vehicle-treated mice.
# (b) The percentage of tumor growth inhibition (%TGI). Each group consisted of 6 mice. Antitumor activity was calculated as %TGI at day 22. Data are shown as means ± SD. * P < 0.05 compared […]
# analyze the relationship between antitumor activity (%TGI) and antiangiogenesis activity (percentage of […]
# sorafenib-treated groups were plotted on the X- and Y-axes, respectively. %TGI and %MVI was determined as described in Materials and Methods. Analysis of covariance (ANCOVA) for %TGI was examined by using %MVI as a covariate (P<0.05)
# [1] = tested on: CCDC-RET, human DTC TPC1 cell lines; conditions: cited from earlier work
# [2] = tested on: FGFR1 and its downstream effectors (FRS2, MEK, ERK); test: Western blot of FGFR1 signaling in bFGF-stimulated RO82-W-1 cells; conditions: 1 h treatment, then bFGF 20 ng/mL and heparin 10 min
# T4 sequence (O95819 whole entry): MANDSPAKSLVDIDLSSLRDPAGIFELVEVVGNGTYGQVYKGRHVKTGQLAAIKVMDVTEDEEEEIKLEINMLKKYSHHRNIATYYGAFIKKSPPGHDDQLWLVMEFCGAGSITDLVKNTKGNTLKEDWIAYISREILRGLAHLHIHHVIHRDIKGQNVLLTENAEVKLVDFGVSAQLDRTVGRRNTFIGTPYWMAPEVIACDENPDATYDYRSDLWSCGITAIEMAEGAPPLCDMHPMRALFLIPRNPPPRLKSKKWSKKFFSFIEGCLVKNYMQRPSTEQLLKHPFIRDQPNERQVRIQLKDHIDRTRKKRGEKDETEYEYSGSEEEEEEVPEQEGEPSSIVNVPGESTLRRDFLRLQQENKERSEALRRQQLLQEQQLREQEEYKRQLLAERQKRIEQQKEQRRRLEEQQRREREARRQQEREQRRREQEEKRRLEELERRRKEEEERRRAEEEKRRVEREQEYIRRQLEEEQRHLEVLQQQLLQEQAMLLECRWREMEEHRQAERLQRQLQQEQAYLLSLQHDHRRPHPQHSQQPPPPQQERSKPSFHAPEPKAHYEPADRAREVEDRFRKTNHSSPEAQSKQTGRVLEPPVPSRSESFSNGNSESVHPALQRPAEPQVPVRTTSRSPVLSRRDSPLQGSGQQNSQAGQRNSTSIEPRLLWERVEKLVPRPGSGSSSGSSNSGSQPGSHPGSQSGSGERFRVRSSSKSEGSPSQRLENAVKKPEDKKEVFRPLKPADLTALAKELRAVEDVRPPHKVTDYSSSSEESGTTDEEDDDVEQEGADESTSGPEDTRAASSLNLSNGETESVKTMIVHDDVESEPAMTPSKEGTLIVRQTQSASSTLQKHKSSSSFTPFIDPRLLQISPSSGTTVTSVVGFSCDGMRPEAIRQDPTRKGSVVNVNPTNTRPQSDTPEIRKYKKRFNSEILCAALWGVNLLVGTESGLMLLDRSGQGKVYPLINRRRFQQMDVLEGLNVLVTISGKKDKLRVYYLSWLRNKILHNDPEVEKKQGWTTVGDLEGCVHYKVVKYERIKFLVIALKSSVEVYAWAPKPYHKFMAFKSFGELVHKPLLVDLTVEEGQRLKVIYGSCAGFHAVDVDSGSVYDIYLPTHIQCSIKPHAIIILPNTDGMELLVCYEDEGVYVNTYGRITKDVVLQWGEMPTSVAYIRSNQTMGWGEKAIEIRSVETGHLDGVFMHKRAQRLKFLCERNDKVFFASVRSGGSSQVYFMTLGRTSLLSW
# T2 sequence (Q13882 whole entry): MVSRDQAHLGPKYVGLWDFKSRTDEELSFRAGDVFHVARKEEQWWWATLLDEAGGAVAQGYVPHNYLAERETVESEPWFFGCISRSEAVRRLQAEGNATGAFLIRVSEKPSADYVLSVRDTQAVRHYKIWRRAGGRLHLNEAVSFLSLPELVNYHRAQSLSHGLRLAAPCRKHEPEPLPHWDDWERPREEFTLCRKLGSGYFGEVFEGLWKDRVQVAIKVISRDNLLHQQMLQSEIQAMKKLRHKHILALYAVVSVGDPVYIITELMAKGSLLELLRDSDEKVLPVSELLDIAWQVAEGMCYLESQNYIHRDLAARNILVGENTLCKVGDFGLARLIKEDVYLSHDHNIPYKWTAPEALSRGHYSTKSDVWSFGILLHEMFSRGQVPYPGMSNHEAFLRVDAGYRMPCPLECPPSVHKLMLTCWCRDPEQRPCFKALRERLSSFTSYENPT
# T5 sequence (P29323 19-1055): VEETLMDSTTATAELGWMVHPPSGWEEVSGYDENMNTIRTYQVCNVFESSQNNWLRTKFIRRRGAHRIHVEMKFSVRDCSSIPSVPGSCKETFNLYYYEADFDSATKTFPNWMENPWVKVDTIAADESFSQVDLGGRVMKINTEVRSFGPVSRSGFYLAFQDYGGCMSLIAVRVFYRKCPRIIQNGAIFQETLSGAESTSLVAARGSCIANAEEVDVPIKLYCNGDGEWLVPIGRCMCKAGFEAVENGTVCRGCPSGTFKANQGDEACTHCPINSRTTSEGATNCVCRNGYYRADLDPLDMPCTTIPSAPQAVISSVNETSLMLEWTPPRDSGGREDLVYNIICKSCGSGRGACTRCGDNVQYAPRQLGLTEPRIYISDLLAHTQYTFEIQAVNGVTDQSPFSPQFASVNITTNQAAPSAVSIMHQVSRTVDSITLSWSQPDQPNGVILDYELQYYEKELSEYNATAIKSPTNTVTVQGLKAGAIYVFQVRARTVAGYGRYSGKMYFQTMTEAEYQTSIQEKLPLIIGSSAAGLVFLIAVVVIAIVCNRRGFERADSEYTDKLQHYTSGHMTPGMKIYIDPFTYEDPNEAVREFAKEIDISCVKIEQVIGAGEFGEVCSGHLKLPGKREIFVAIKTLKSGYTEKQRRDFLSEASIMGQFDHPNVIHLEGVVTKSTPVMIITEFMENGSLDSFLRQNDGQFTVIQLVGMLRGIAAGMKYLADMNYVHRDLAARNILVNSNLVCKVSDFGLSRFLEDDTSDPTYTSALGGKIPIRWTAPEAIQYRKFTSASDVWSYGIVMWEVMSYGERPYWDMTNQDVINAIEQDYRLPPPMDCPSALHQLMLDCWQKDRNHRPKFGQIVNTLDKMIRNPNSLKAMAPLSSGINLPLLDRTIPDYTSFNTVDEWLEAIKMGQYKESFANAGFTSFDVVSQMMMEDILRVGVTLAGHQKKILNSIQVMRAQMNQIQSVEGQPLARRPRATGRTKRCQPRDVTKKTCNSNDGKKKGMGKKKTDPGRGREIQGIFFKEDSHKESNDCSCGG
# T11 sequence (O15146 24-869): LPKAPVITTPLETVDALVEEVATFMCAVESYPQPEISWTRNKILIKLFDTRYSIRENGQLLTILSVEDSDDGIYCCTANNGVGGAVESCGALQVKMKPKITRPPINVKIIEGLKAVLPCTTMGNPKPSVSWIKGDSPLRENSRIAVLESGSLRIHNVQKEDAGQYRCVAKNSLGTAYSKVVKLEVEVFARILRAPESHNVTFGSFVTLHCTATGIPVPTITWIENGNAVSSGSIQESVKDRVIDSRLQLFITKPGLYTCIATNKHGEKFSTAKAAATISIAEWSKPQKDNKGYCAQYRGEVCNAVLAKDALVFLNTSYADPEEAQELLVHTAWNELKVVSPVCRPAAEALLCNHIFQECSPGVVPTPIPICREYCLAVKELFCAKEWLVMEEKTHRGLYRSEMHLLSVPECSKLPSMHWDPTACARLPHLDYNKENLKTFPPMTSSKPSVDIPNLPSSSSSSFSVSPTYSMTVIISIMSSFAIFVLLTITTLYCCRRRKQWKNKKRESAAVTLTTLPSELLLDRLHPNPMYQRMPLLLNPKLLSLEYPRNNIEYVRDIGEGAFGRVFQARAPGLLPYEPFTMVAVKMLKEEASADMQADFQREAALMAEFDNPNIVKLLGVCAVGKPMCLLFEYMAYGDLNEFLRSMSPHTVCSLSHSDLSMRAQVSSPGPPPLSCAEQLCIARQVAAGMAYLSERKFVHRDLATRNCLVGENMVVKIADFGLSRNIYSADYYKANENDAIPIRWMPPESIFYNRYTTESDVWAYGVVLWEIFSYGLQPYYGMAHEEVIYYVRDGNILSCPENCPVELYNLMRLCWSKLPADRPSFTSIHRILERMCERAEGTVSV
# T14 sequence (Q9NWZ3 whole entry): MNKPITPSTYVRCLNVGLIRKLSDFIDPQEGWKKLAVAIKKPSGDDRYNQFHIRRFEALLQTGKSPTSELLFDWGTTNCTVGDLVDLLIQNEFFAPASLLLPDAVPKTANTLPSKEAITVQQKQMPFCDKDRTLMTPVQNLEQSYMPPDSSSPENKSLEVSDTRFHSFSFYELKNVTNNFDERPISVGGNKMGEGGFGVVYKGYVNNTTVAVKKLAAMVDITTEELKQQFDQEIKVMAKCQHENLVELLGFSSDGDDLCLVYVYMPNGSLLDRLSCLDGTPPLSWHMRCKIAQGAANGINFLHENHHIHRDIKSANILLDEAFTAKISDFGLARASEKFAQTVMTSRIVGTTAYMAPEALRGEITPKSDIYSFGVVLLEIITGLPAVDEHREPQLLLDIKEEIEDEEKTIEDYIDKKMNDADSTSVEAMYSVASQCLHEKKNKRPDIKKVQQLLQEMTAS
# T13 sequence (O14920 whole entry): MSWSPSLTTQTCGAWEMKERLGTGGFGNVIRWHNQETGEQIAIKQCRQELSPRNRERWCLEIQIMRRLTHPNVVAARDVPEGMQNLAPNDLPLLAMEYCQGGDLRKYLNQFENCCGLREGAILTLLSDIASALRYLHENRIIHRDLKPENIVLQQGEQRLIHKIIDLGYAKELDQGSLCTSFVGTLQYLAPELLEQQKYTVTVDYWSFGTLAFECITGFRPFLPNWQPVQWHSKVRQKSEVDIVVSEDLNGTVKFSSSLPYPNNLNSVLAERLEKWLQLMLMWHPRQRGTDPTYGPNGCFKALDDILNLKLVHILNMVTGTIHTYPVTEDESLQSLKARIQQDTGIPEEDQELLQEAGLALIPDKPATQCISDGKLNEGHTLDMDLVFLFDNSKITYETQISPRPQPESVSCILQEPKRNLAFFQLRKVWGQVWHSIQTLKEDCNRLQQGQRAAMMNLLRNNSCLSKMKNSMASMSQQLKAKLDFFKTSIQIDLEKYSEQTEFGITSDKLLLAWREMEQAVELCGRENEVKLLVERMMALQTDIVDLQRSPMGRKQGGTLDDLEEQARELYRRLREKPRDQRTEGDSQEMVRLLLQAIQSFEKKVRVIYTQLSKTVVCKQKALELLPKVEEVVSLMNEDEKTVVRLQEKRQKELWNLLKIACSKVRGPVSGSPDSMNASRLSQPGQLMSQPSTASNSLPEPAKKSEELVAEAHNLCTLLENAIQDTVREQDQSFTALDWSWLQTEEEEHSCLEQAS
smiles,measurement,setting,value
"COc1cc2nccc(Oc3ccc(NC(=O)NC4CC4)c(Cl)c3)c2cc1C(N)=O [Lenvatinib, Lenvatinib mesilate]",IC50,FGFR2,27 nM
same,IC50,BRK,170 nM
same,IC50,FGFR3(K650M),250 nM
same,IC50,HGK,400 nM
same,IC50,EPHB2,660 nM
same,IC50,RAF1,1600 nM
same,IC50,TIE2,2500 nM
same,IC50,SYK,8700 nM
same,IC50,HER2,> 10000 nM
same,IC50,IGF1R,> 10000 nM
same,IC50,MUSK,> 10000 nM
same,IC50,GSK3β,> 10000 nM
same,IC50,IKKb,> 10000 nM
same,IC50,IRAK4,> 10000 nM
same,IC50,K1 cells,22000 nM
same,phosphorylation of FRS2,FRS2,decreased
same,antitumor activity,K1 xenograft,significant antitumor activity
same,tumor volume change,"TT xenograft; TT xenografts, 100 mg/kg oral once daily 29 days",tumor shrinkage
same,in vivo tumor growth,"TT xenograft; TT xenografts, 10, 30, and 100 mg/kg oral once daily 29 days",inhibited in vivo tumor growth of TT xenografts in a dose-dependent manner
same,antitumor activity,"RO82-W-1 xenograft; RO82-W-1 xenograft, 1, 3, and 10 mg/kg oral once daily 14 days",significant antitumor activity
same,antitumor activity compared with sorafenib (300 mg/kg),"RO82-W-1 xenograft; RO82-W-1 xenografts, 100 mg/kg oral once daily 21 days, %TGI day 22",significant potent antitumor activity
same,"antitumor activity (%TGI) normalized for angiogenesis inhibition (%MVI), versus sorafenib","RO82-W-1 xenograft; RO82-W-1 xenografts, ANCOVA",stronger antitumor activity
same,"phosphorylation of CCDC-RET, in vitro proliferation and in vivo tumor growth of TPC1",[1],inhibits
same,"phosphorylation of FGFR1, FRS2, MEK, and ERK",[2],"inhibited the phosphorylation of FGFR1 and of FRS2, MEK, and ERK, in a concentration-dependent manner"
